Assay results as given in patent USRE47740E1, “Aminopyridinecarboxamides as CXCR2 modulators” (Syntrix Biosystems Inc., priority 2010, dated 2019).
Like-named read-outs stand apart in the source and are kept apart here.

Target: CXCR2 (Homo sapiens (Human), UniProt P25025)
Test: Inhibition of CXCR2-mediated (GROα-induced) intracellular calcium release in human neutrophils (whole cell assay, Pharmacology Example 1)
Format: cell-based
Conditions: GROα 25 nM
Description: Briefly, human neutrophils were suspended in HBSS^− (without Ca^2+ and Mg^2+) containing 10 mM HEPES and FLIPR Calcium 3 dye (3.1×10^7 cells in total volume 1.7 mL). Cells were aliquoted (200 μL of the cell suspension per tube, 8 tubes total) and 2 μL of compound 9 (with appropriate dilutions) were added to each of 6 tubes. The tested concentrations of compound 9 were 156 nM, 312 nM, 625 nM, 1250 nM, 2500 nM and 5000 nM. As controls, 2 μL of DMSO (1% final concentration) were added to 2 other tubes. Cells were incubated for 30 min at 37° C. After dye loading, tubes were centrifuged at 6,000 rpm for 1 min, supernatant was removed and the cell pellet was re-suspended in 200 μL of HBSS^+ (with Ca^2+ and Mg^2+) containing 10 mM HEPES. The test compound or DMSO (control) was added again at the same concentrations that were used during cell loading. The cell suspension was aliquoted into a 96-well Reading Plate (Corning) in a volume of 90 μL (10^5 cells/well). The Compound Plate contained agonist (GROα in HBSS^−) or HBSS^− (control). After 15 sec of reading the basal level of fluorescence by FlexStation II, 10 μL of GROα or HBSS^− were automatically transferred from the Compound Plate into the Reading Plate (final concentration of GROα was 25 nM). Changes in fluorescence were monitored (λex=485 nm, λem=525 nm) every 5 s for 240 to 500 s at room temperature.
The maximum change in fluorescence, expressed in arbitrary units over baseline (Max-Min), was used to determine the GROα response. The effect of each compound on the GROα response was normalized and expressed as a percent of the DMSO control, which was designated as “100% response.” Curve fitting and calculation of the compound inhibitory concentration that reduces the level of the GROα response by 50% (IC50), or the compound agonist concentration that increases the level of the calcium release by 50% of the maximum agonist-induced change (EC50) were determined by nonlinear regression analysis of the dose-response curves generated using Prism 4 (GraphPad Software, Inc., San Diego, Calif.).

[1] = FLIPR Calcium 3 dye, read-out: Inhibition of CXCR2 IC50
[2] = value in synthesis example, read-out: IC50 in whole cell assay (Pharmacology Example 1)

Sequence of CXCR2 (P25025 whole entry): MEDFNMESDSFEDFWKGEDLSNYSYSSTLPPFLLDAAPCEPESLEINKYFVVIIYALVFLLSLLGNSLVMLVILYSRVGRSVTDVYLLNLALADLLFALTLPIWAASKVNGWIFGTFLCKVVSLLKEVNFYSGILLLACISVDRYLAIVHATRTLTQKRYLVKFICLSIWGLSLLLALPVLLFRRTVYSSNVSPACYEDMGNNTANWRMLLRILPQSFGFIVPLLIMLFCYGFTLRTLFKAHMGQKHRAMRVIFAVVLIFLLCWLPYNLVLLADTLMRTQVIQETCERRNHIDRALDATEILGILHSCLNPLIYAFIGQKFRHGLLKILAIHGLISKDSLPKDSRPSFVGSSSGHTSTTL

Row | SMILES | IC50 [1] | IC50 [2] | IC50 (read-out: IC50, inhibition of CXCR2-mediated intracellular calcium release)
1 | CN(Cc1ccccc1B(O)O)c1ccc(C(=O)Nc2ccc(F)cc2)cn1 [Compound 8] | 1000 ± 200 nM | 3700 ± 600 nM | 
2 | O=C(Nc1ccc(F)cc1)c1ccc(NCc2ccccc2B(O)O)nc1 [Compound 10] | 1700 ± 200 nM | 1700 ± 200 nM | 
3 | CN(Cc1ccccc1O)c1ccc(C(=O)Nc2ccc(F)cc2)cn1 [Compound 9] | 586 ± 910 nM | 590 ± 90 nM | 586 ± 91 nM

Further lines, results first:

Row | IC50 [1] | IC50 [2] | IC50 (read-out: IC50, inhibition of CXCR2-mediated intracellular calcium release) | SMILES
4 | 244 ± 150 nM | 244 ± 15 nM |  | CN(Cc1ccc(B(O)O)cc1)c1ncc(C(=O)Nc2ccc(F)cc2)cn1 [Compound 19]
5 | 247 ± 350 nM | 247 ± 35 nM |  | CN(Cc1ccc(B(O)O)cc1)c1ccc(C(=O)Nc2ccc(F)cc2)cn1 [Compound 18]
